Reference: the supplement of paper PMC9912026

Test system: A375_aEGFR2
Assay: pERK immunofluorescence normalised to no-drug reference (=1); higher = more ERK phosphorylation (less pathway inhibition)
Conditions: drug treatment time 24 h, EGF time 8 h
Protocol: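 A375 CRISPRa-EGFR (A375_aEGFR2) or HT29 cells were treated with two-drug dose combinations (vemurafenib, LY3009120, cobimetinib) for 24 h, then stimulated with EGF (100 ng/mL) or mock medium for 8 h. pERK (T202/Y204) was measured by immunofluorescence as the cytosolic population average, normalised to an untreated no-drug reference of the block (=1). Averages of 2 technical replicates. A375 in 5% FBS, HT29 in 10% FBS.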

CCCS(=O)(=O)Nc1ccc(F)c(C(=O)c2c[nH]c3ncc(-c4ccc(Cl)cc4)cc23)c1F [Vemurafenib] + O=C(c1ccc(F)c(F)c1Nc1ccc(I)cc1F)N1CC(O)([C@@H]2CCCCN2)C1 [Cobimetinib]
pERK immunofluorescence normalised
Conditions | EGF 0 ng/mL | EGF 100 ng/mL
drug A concentration 0 µM, drug B concentration 31.62 pM | 1.03 | 1.05
drug A concentration 0 µM, drug B concentration 0.0001 µM | 1 | 1.07
drug A concentration 0 µM, drug B concentration 0.000316228 µM | 1 | 1.02
drug A concentration 0 µM, drug B concentration 0.001 µM | 0.917 | 1.01
drug A concentration 0 µM, drug B concentration 0.00316228 µM | 0.732 | 0.906
drug A concentration 0 µM, drug B concentration 0.01 µM | 0.399 | 0.695
drug A concentration 0 µM, drug B concentration 0.0316228 µM | 0.188 | 0.526
drug A concentration 0 µM, drug B concentration 0.1 µM | 0.147 | 0.468
drug A concentration 0 µM, drug B concentration 0.316228 µM | 0.141 | 0.347
drug A concentration 0 µM, drug B concentration 1 µM | 0.137 | 0.196
drug A concentration 0.000316228 µM, drug B concentration 0 µM | 1.01 | 1.04
drug A concentration 0.000316228 µM, drug B concentration 31.62 pM | 1.01 | 1.03
drug A concentration 0.000316228 µM, drug B concentration 0.0001 µM | 1.01 | 1.02
drug A concentration 0.000316228 µM, drug B concentration 0.000316228 µM | 0.984 | 1.02
drug A concentration 0.000316228 µM, drug B concentration 0.001 µM | 0.915 | 0.936
drug A concentration 0.000316228 µM, drug B concentration 0.00316228 µM | 0.687 | 0.804
drug A concentration 0.000316228 µM, drug B concentration 0.01 µM | 0.383 | 0.605
drug A concentration 0.000316228 µM, drug B concentration 0.0316228 µM | 0.175 | 0.498
drug A concentration 0.000316228 µM, drug B concentration 0.1 µM | 0.152 | 0.425
drug A concentration 0.000316228 µM, drug B concentration 0.316228 µM | 0.138 | 0.289
drug A concentration 0.000316228 µM, drug B concentration 1 µM | 0.14 | 0.179
drug A concentration 0.001 µM, drug B concentration 0 µM | 1.01 | 1.05
drug A concentration 0.001 µM, drug B concentration 31.62 pM | 1.02 | 1.04
drug A concentration 0.001 µM, drug B concentration 0.0001 µM | 1.01 | 1.02
drug A concentration 0.001 µM, drug B concentration 0.000316228 µM | 0.958 | 1.05
drug A concentration 0.001 µM, drug B concentration 0.001 µM | 0.857 | 0.99
drug A concentration 0.001 µM, drug B concentration 0.00316228 µM | 0.631 | 0.816
drug A concentration 0.001 µM, drug B concentration 0.01 µM | 0.328 | 0.621
drug A concentration 0.001 µM, drug B concentration 0.0316228 µM | 0.172 | 0.518
drug A concentration 0.001 µM, drug B concentration 0.1 µM | 0.142 | 0.443
drug A concentration 0.001 µM, drug B concentration 0.316228 µM | 0.139 | 0.3
drug A concentration 0.001 µM, drug B concentration 1 µM | 0.137 | 0.172
drug A concentration 0.00316228 µM, drug B concentration 0 µM | 1.02 | 1.06
drug A concentration 0.00316228 µM, drug B concentration 31.62 pM | 0.976 | 1.05
drug A concentration 0.00316228 µM, drug B concentration 0.0001 µM | 0.987 | 1.06
drug A concentration 0.00316228 µM, drug B concentration 0.000316228 µM | 0.943 | 0.991
drug A concentration 0.00316228 µM, drug B concentration 0.001 µM | 0.874 | 0.935
drug A concentration 0.00316228 µM, drug B concentration 0.00316228 µM | 0.623 | 0.81
drug A concentration 0.00316228 µM, drug B concentration 0.01 µM | 0.306 | 0.625
drug A concentration 0.00316228 µM, drug B concentration 0.0316228 µM | 0.164 | 0.525
drug A concentration 0.00316228 µM, drug B concentration 0.1 µM | 0.149 | 0.435
drug A concentration 0.00316228 µM, drug B concentration 0.316228 µM | 0.141 | 0.285
drug A concentration 0.00316228 µM, drug B concentration 1 µM | 0.138 | 0.166
drug A concentration 0.01 µM, drug B concentration 0 µM | 0.986 | 1.03
drug A concentration 0.01 µM, drug B concentration 31.62 pM | 0.927 | 1.02
drug A concentration 0.01 µM, drug B concentration 0.0001 µM | 0.905 | 0.991
drug A concentration 0.01 µM, drug B concentration 0.000316228 µM | 0.875 | 1.01
drug A concentration 0.01 µM, drug B concentration 0.001 µM | 0.814 | 0.909
drug A concentration 0.01 µM, drug B concentration 0.00316228 µM | 0.534 | 0.765
drug A concentration 0.01 µM, drug B concentration 0.01 µM | 0.292 | 0.613
drug A concentration 0.01 µM, drug B concentration 0.0316228 µM | 0.198 | 0.503
drug A concentration 0.01 µM, drug B concentration 0.1 µM | 0.144 | 0.417
drug A concentration 0.01 µM, drug B concentration 0.316228 µM | 0.139 | 0.29
drug A concentration 0.01 µM, drug B concentration 1 µM | 0.138 | 0.165
drug A concentration 0.0316228 µM, drug B concentration 0 µM | 0.881 | 1
drug A concentration 0.0316228 µM, drug B concentration 31.62 pM | 0.842 | 0.991
drug A concentration 0.0316228 µM, drug B concentration 0.0001 µM | 0.795 | 0.944
drug A concentration 0.0316228 µM, drug B concentration 0.000316228 µM | 0.753 | 0.892
drug A concentration 0.0316228 µM, drug B concentration 0.001 µM | 0.666 | 0.834
drug A concentration 0.0316228 µM, drug B concentration 0.00316228 µM | 0.441 | 0.692
drug A concentration 0.0316228 µM, drug B concentration 0.01 µM | 0.228 | 0.567
drug A concentration 0.0316228 µM, drug B concentration 0.0316228 µM | 0.161 | 0.495
drug A concentration 0.0316228 µM, drug B concentration 0.1 µM | 0.145 | 0.414
drug A concentration 0.0316228 µM, drug B concentration 0.316228 µM | 0.14 | 0.282
drug A concentration 0.0316228 µM, drug B concentration 1 µM | 0.138 | 0.164
drug A concentration 0.1 µM, drug B concentration 0 µM | 0.659 | 0.851
drug A concentration 0.1 µM, drug B concentration 31.62 pM | 0.542 | 0.79
drug A concentration 0.1 µM, drug B concentration 0.0001 µM | 0.539 | 0.787
drug A concentration 0.1 µM, drug B concentration 0.000316228 µM | 0.489 | 0.774
drug A concentration 0.1 µM, drug B concentration 0.001 µM | 0.404 | 0.672
drug A concentration 0.1 µM, drug B concentration 0.00316228 µM | 0.285 | 0.615
drug A concentration 0.1 µM, drug B concentration 0.01 µM | 0.186 | 0.553
drug A concentration 0.1 µM, drug B concentration 0.0316228 µM | 0.149 | 0.525
drug A concentration 0.1 µM, drug B concentration 0.1 µM | 0.146 | 0.407
drug A concentration 0.1 µM, drug B concentration 0.316228 µM | 0.14 | 0.283
drug A concentration 0.1 µM, drug B concentration 1 µM | 0.14 | 0.161
drug A concentration 0.316228 µM, drug B concentration 0 µM | 0.362 | 0.697
drug A concentration 0.316228 µM, drug B concentration 31.62 pM | 0.311 | 0.647
drug A concentration 0.316228 µM, drug B concentration 0.0001 µM | 0.28 | 0.635
drug A concentration 0.316228 µM, drug B concentration 0.000316228 µM | 0.264 | 0.643
drug A concentration 0.316228 µM, drug B concentration 0.001 µM | 0.235 | 0.6
drug A concentration 0.316228 µM, drug B concentration 0.00316228 µM | 0.187 | 0.584
drug A concentration 0.316228 µM, drug B concentration 0.01 µM | 0.161 | 0.557
drug A concentration 0.316228 µM, drug B concentration 0.0316228 µM | 0.146 | 0.502
drug A concentration 0.316228 µM, drug B concentration 0.1 µM | 0.142 | 0.388
drug A concentration 0.316228 µM, drug B concentration 0.316228 µM | 0.139 | 0.27
drug A concentration 0.316228 µM, drug B concentration 1 µM | 0.139 | 0.157
drug A concentration 1 µM, drug B concentration 0 µM | 0.211 | 0.639
drug A concentration 1 µM, drug B concentration 31.62 pM | 0.195 | 0.623
drug A concentration 1 µM, drug B concentration 0.0001 µM | 0.192 | 0.614
drug A concentration 1 µM, drug B concentration 0.000316228 µM | 0.189 | 0.614
drug A concentration 1 µM, drug B concentration 0.001 µM | 0.175 | 0.603
drug A concentration 1 µM, drug B concentration 0.00316228 µM | 0.169 | 0.615
drug A concentration 1 µM, drug B concentration 0.01 µM | 0.147 | 0.571
drug A concentration 1 µM, drug B concentration 0.0316228 µM | 0.142 | 0.494
drug A concentration 1 µM, drug B concentration 0.1 µM | 0.141 | 0.382
drug A concentration 1 µM, drug B concentration 0.316228 µM | 0.138 | 0.245
drug A concentration 1 µM, drug B concentration 1 µM | 0.141 | 0.153
drug A concentration 3.16228 µM, drug B concentration 0 µM | 0.171 | 0.647
drug A concentration 3.16228 µM, drug B concentration 31.62 pM | 0.161 | 0.666
drug A concentration 3.16228 µM, drug B concentration 0.0001 µM | 0.172 | 0.648
drug A concentration 3.16228 µM, drug B concentration 0.000316228 µM | 0.158 | 0.647
drug A concentration 3.16228 µM, drug B concentration 0.001 µM | 0.152 | 0.635
drug A concentration 3.16228 µM, drug B concentration 0.00316228 µM | 0.147 | 0.614
drug A concentration 3.16228 µM, drug B concentration 0.01 µM | 0.146 | 0.532
drug A concentration 3.16228 µM, drug B concentration 0.0316228 µM | 0.14 | 0.464
drug A concentration 3.16228 µM, drug B concentration 0.1 µM | 0.139 | 0.305
drug A concentration 3.16228 µM, drug B concentration 0.316228 µM | 0.139 | 0.179
drug A concentration 3.16228 µM, drug B concentration 1 µM | 0.14 | 0.138
drug A concentration 10 µM, drug B concentration 0 µM | 0.154 | 0.664
drug A concentration 10 µM, drug B concentration 31.62 pM | 0.152 | 0.616
drug A concentration 10 µM, drug B concentration 0.0001 µM | 0.148 | 0.612
drug A concentration 10 µM, drug B concentration 0.000316228 µM | 0.149 | 0.579
drug A concentration 10 µM, drug B concentration 0.001 µM | 0.147 | 0.584
drug A concentration 10 µM, drug B concentration 0.00316228 µM | 0.149 | 0.546
drug A concentration 10 µM, drug B concentration 0.01 µM | 0.147 | 0.476
drug A concentration 10 µM, drug B concentration 0.0316228 µM | 0.141 | 0.36
drug A concentration 10 µM, drug B concentration 0.1 µM | 0.14 | 0.209
drug A concentration 10 µM, drug B concentration 0.316228 µM | 0.141 | 0.146
drug A concentration 10 µM, drug B concentration 1 µM | 0.146 | 0.138
